From PubChem BioAssay (NCI)
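Protocol summary: plate cells (96-well), add compound at 5 concentrations, incubate 48 h, interpolate endpoints linearly. GI50: concentration for 50% inhibition of growth. TGI: total growth inhibition.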

Columns and labels:
Experiment in all cases: NCI-60 cell line screen, 48 h
786-0 renal = tested on: 786-0 renal
HCT-15 colon = tested on: HCT-15 colon
HL-60(TB) leukemia = tested on: HL-60(TB) leukemia
KM12 colon = tested on: KM12 colon
HOP-62 NSCLC = tested on: HOP-62 NSCLC
NCI-H460 lung = tested on: NCI-H460 lung
SK-MEL-2 melanoma = tested on: SK-MEL-2 melanoma
M14 melanoma = tested on: M14 melanoma
UACC-62 melanoma = tested on: UACC-62 melanoma
T-47D breast = tested on: T-47D breast

Row | SMILES | TGI (786-0 renal) [µM] | TGI (HCT-15 colon) [µM] | TGI (HL-60(TB) leukemia) [µM] | TGI (KM12 colon) [µM] | TGI (HOP-62 NSCLC) [µM] | TGI (NCI-H460 lung) [µM] | TGI (SK-MEL-2 melanoma) [µM] | TGI (M14 melanoma) [µM] | TGI (UACC-62 melanoma) [µM] | TGI (T-47D breast) [µM] | GI50 (786-0 renal) [µM] | GI50 (HCT-15 colon) [µM] | GI50 (HL-60(TB) leukemia) [µM] | GI50 (KM12 colon) [µM] | GI50 (HOP-62 NSCLC) [µM] | GI50 (NCI-H460 lung) [µM] | GI50 (SK-MEL-2 melanoma) [µM] | GI50 (M14 melanoma) [µM] | GI50 (UACC-62 melanoma) [µM] | GI50 (T-47D breast) [µM]
1 | Cc1c([N+](=O)[O-])oc2ccc3ccccc3c12 | > 100 | > 100 | > 100 | > 100 | > 100 | > 100 | > 100 | > 100 | > 100 | > 100 |  |  |  |  |  |  |  |  |  | 
2 | CCN(CC)C(=S)[S][Bi]([S]C(=S)N(CC)CC)[S]C(=S)N(CC)CC | 0.299 | 0.348 | 19.9 | 3.1 | 3.39 | 3.07 | 0.774 | 0.485 | 0.806 | 0.341 | 0.163 | 0.164 | 0.127 | 1.61 | 1.9 | 1.44 | 0.3 | 0.218 | 0.252 | 0.122
3 | CCCCCCCCCCCCCCCCCC(=O)Nc1ccn(C2OC(CO)C(O)C2O)c(=O)n1 (stereo unspecified) | > 100 | > 100 | 41.8 | > 100 | > 96.2 | > 100 | > 100 | > 77.3 | > 100 | > 100 |  |  |  |  |  |  |  |  |  | 
4 | CC(=C/c1ccccc1)/C=C1/NC(=S)N(/C=C2\C(=O)Oc3ccccc3C2=O)C1=O | > 100 | > 100 | > 100 | > 100 | > 100 | > 100 | > 100 | > 100 | > 100 | > 100 | 57.6 |  |  |  |  |  |  |  | 40.7 | 
5 | CC(O)c1cc(C(=O)N[C@@H](C)Cn2ccc(-c3ccc(C#N)c(Cl)c3)n2)n[nH]1 (stereo partly specified) | > 100 | > 100 | 0.24 | > 100 | > 100 | > 100 | > 100 | > 100 | > 100 | 87.8 | > 100 | > 100 | 0.0272 | 76.7 | > 100 | > 100 | 46.6 | 32.8 | 34.3 | 13.2
6 | CS(=O)(=O)N(c1cc(-c2ccc3ncnc(Nc4cccc(Cl)c4)c3c2)cnc1Cl)S(C)(=O)=O | 6.76 | 6.99 | 6.48 | 4.72 | 12.8 | > 100 | 2.09 | 4.4 | 2.21 | 0.618 | 0.506 | 0.403 | 0.284 | 1.21 | 0.443 | 0.591 | 0.469 | 0.598 | 0.312 | 0.043
7 | Cc1ccc([C@]2(C)CC[C@H](C)/C2=C\Br)c(O)c1 | 13.4 | 33.7 | 12.6 | 13.7 | 15.7 | 16.5 | 17.9 | 13.3 | 14.1 | 27.9 | 3.59 | 4.99 | 3.47 | 3.55 | 4.22 | 4.23 | 2.82 | 3.51 | 3.71 | 6.45
8 | CC(=O)c1cc(O)c2ccccc2c1O | 35.2 | 44.1 | 62.5 | 35.1 | 41.4 | 76.8 | 38.7 | 36.7 | 32.7 | 41.4 | 20 | 20.5 | 25.5 | 18.8 | 17.5 | 27 | 20.4 | 19.7 | 16.2 | 17.4
9 | Cc1cc(I)cc(CN(C)CCCN2CCN(C)CC2)c1O | > 54.2 | 59 | > 57.9 | > 100 | 36.3 | > 100 | 46.1 | 23.9 | 19.3 | 91.1 | 18.6 | 21.1 | 27.1 | 35.6 | 17 | 32.8 | 22.3 | 4.67 | 6.89 | 28.7
10 | O=C(O)c1cc2ccccc2c2c1C(=O)c1ccccc1-2 | > 100 | > 100 | > 100 | > 100 | > 100 | > 100 | > 100 | > 100 | > 100 | > 100 |  |  |  |  |  |  |  |  |  | 
11 | O=C(O)C(Oc1nc(=S)[nH]c(=S)[nH]1)(c1ccc(Cl)cc1)c1ccc(Cl)cc1 | > 100 | > 100 | > 100 | > 100 | > 100 | > 100 | > 100 | > 100 | > 100 | > 100 |  |  |  |  |  |  |  |  |  | 
12 | CN(C)CCCn1c(-c2nonc2N)nc2cnccc21 | > 25 | > 25 | > 25 | > 25 | > 25 | > 25 | > 25 | > 25 | > 25 | > 25 | > 25 | > 25 | > 25 | > 25 | > 25 | > 25 | > 25 | > 25 | > 25 | > 25
13 | O=C1OCC2=C1C(c1ccccc1)c1cc3c(cc1N2CCO)OCCO3 (stereo unspecified) | > 50 | > 50 | 0.406 | 6.19 | > 50 | 1.96 | 0.432 | 1.66 | > 50 | > 50 | 0.288 | 0.518 | 0.118 | 0.207 | 0.763 | 0.193 | 0.156 | 0.23 |  | 0.22
14 | CC(C)=CCCC(C)C1=C(O)C(=O)C(C)=CC1=O (stereo unspecified) | 26.9 | 5.75 | 0.586 | 34.6 | 36.9 | > 100 | 34 | 36 | 27.9 | 3.92 |  |  |  |  |  |  |  |  |  | 
15 | Cc1ccc(Sc2cc3c(oc2=O)-c2ccccc2OC3O)cc1 (stereo unspecified) | 51.6 | 76.3 | 37.1 | 49.7 | 44.7 | 54.5 | 47.7 | 43.5 | 49.8 | 81.2 | 24.3 | 28.3 | 16.6 | 21.5 | 22.5 | 22.4 | 22.1 | 22.4 | 21.2 | 24.8
